From patent US20240368135A1 (VERTEX PHARMACEUTICALS INCORPORATED, priority 2021, published 2024)
Where two headings read alike, the source gives them in different places.

Molecular target: human NaV 1.8 (Homo sapiens, UniProt Q9Y5Y9)
Assay: E-VIPR assay detecting and measuring NaV inhibition properties
Format: cell-based
Conditions: HEK cells expressing truncated human NaV 1.8
How it was run: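 HEK cells expressing truncated, fully active human NaV1.8, with KIR2.1 BacMam co-transduction, were loaded with CC2-DMPE/DiSBAC6(3) voltage-sensing dyes for 20 min at room temperature. Compounds were tested in 11-point 3-fold dilutions (300 nM top final), optionally with 25% human serum, under electrical stimulation with FRET read-out.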

[1] = no human serum, read-out: IC50 in the E-VIPR Assay

human NaV 1.8, sequence (Q9Y5Y9 126-399 limits assumed): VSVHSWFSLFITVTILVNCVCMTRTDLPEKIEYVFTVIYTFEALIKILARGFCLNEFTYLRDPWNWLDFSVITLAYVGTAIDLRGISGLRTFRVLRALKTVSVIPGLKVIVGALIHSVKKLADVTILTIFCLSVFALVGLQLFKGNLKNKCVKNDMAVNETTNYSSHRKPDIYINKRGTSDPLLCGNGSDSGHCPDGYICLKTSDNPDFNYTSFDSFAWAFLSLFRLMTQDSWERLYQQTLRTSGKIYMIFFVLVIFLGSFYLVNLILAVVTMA
human NaV 1.8, sequence (Q9Y5Y9 660-890 limits assumed): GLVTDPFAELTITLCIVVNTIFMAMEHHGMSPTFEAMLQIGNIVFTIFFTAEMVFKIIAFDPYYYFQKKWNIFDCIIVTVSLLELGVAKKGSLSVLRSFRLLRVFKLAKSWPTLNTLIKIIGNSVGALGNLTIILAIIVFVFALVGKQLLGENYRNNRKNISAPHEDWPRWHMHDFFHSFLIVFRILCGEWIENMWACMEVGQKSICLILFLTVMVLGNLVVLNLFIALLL
human NaV 1.8, sequence (Q9Y5Y9 1148-1722 limits assumed): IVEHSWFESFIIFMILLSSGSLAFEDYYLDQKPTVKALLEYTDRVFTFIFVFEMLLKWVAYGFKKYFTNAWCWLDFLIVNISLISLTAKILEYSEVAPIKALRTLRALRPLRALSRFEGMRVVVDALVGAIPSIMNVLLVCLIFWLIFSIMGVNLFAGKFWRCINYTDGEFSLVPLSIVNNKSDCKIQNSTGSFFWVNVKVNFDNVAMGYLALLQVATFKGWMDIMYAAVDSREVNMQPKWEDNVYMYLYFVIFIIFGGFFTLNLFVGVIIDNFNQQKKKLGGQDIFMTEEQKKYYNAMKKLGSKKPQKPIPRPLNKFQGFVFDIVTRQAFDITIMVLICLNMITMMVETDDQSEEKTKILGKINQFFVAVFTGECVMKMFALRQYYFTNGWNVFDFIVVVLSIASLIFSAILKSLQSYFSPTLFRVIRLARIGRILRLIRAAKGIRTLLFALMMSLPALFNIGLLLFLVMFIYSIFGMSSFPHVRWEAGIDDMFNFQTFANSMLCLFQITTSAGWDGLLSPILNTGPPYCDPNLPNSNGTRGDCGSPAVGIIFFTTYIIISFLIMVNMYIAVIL

Structure (SMILES)	IC50 [1]	IC50 (in the presence of human serum (compound numbers followed by *), read-out: IC50 in the E-VIPR Assay, performed in the presence of human serum)
COc1c([C@H]2[C@H](C(=O)Nc3cn(C)cn3)O[C@@](C)(C(F)(F)F)[C@H]2C)ccc(F)c1F [Compound 318, (2R,3S,4S,5R)-3-(3,4-difluoro-2-methoxyphenyl)-4,5-dimethyl-N-(1-methyl-1H-imidazol-4-yl)-5-(trifluoromethyl)-tetrahydrofuran-2-carboxamide]	≥ 1000 nM	
COCCOc1c([C@H]2[C@H](C(=O)Nc3cnn(C(C)(C)CO)c3)O[C@@](C)(C(F)(F)F)[C@H]2C)ccc(F)c1F [Compound 582, (2R,3S,4S,5R)-3-(3,4-difluoro-2-(2-methoxyethoxy)phenyl)-N-(1-(1-hydroxy-2-methylpropan-2-yl)-1H-pyrazol-4-yl)-4,5-dimethyl-5-(trifluoromethyl)tetrahydrofuran-2-carboxamide]	100 to 1000 nM	
COc1c([C@H]2[C@H](C(=O)Nc3ccc(NS(C)(=O)=O)nc3)O[C@@](C)(C(F)(F)F)[C@H]2C)ccc(F)c1F [Compound 526, (2R,3S,4S,5R)-3-(3,4-difluoro-2-methoxy-phenyl)-N-[6-(methanesulfonamido)-3-pyridyl]-4,5-dimethyl-5-(trifluoromethyl)tetrahydrofuran-2-carboxamide]	10 to 100 nM	
CC1C(c2ccc(F)c(F)c2OC2CC(O)C2)C(C(=O)Nc2cc(CO)ncc2F)OC1(C)C(F)(F)F [Compound 657, (2R,3S,4S,5R)-3-(3,4-difluoro-2-((1S,3R)-3-hydroxycyclobutoxy)phenyl)-N-(5-fluoro-2-(hydroxymethyl)pyridin-4-yl)-4,5-dimethyl-5-(trifluoromethyl)tetrahydrofuran-2-carboxamide]	≥ 1000 nM	
COc1c(C2C(C(=O)Nc3ccnc(C(O)C(C)O)c3)OC(C)(C(F)(F)F)C2C)ccc(F)c1C (single isomer, unassigned) [Compound 148]		< 10 nM
C=C(CO)COc1c([C@H]2[C@H](C(=O)Nc3ccc4cnnn4c3)O[C@@](C)(C(F)(F)F)[C@H]2C)ccc(F)c1F [Compound 622, (2R,3S,4S,5R)-3-[3,4-difluoro-2-[2-(hydroxymethyl)allyloxy]phenyl]-4,5-dimethyl-N-(triazolo[1,5-a]pyridin-6-yl)-5-(trifluoromethyl)tetrahydrofuran-2-carboxamide]	< 10 nM	
COc1c([C@H]2[C@H](C(=O)Nc3cc(C(O)CN4CCOCC4)ncc3F)O[C@@](C)(C(F)(F)F)[C@H]2C)ccc(F)c1F (single isomer, unassigned) [Compound 371, rel-(2R*,3S*,4S*,5R*)-3-(3,4-difluoro-2-methoxyphenyl)-N-(5-fluoro-2-(1-hydroxy-2-morpholinoethyl)pyridin-4-yl)-4,5-dimethyl-5-(trifluoromethyl)tetrahydrofuran-2-carboxamide]	10 to 100 nM	
C[C@H]1[C@@H](c2ccc(F)c(F)c2O)[C@H](C(=O)Nc2ccc(C(N)=O)nc2)O[C@@]1(C)C(F)(F)F [Compound 649, 5-[[(2R,3S,4S,5R)-3-(3,4-difluoro-2-hydroxy-phenyl)-4,5-dimethyl-5-(trifluoromethyl)tetrahydrofuran-2-carbonyl]amino]pyridine-2-carboxamide]	100 to 1000 nM	
COc1c([C@@H]2[C@@H](C(=O)Nc3cncc(S(=O)(=O)N(C)C)c3)O[C@](C)(C(F)(F)F)[C@@H]2C)ccc(F)c1F (stereo in doubt) [Compound 452, rel-(2S,3R,4R,5S)-3-(3,4-difluoro-2-methoxyphenyl)-N-(5-(N,N-dimethylsulfamoyl)pyridin-3-yl)-4,5-dimethyl-5-(trifluoromethyl)tetrahydrofuran-2-carboxamide]	≥ 1000 nM	
COc1c([C@H]2[C@H](C(=O)Nc3ccc(C(F)F)nc3)O[C@@](C)(C(F)(F)F)[C@H]2C)ccc(F)c1C(F)F (single isomer, unassigned) [Compound 165]	10 to 100 nM	
COc1c([C@H]2[C@H](C(=O)NCC3CNC(=O)C3)O[C@@](C)(C(F)(F)F)[C@H]2C)ccc(F)c1F (stereo partly drawn) [Compound 281, (2R,3S,4S,5R)-3-(3,4-difluoro-2-methoxyphenyl)-4,5-dimethyl-N-((5-oxopyrrolidin-3-yl)methyl)-5-(trifluoromethyl)tetrahydrofuran-2-carboxamide]	100 to 1000 nM	

More lines, now with the values ahead:

IC50 [1]	IC50 (in the presence of human serum (compound numbers followed by *), read-out: IC50 in the E-VIPR Assay, performed in the presence of human serum)	Structure (SMILES)
< 10 nM		C[C@H]1[C@@H](c2ccc(F)c(F)c2OC(F)F)[C@H](C(=O)Nc2ccnc(C(C)(C)O)c2)O[C@@]1(C)C(F)(F)F (single isomer, unassigned) [Compound 84]
< 10 nM		COc1c([C@H]2[C@H](C(=O)Nc3ccnc(N4C[C@@H](C)NCC4=O)c3)O[C@@](C)(C(F)(F)F)[C@H]2C)ccc(F)c1F [Compound 480, (2R,3S,4S,5R)-3-(3,4-difluoro-2-methoxyphenyl)-4,5-dimethyl-N-(2-((R)-5-methyl-2-oxopiperazin-1-yl)pyridin-4-yl)-5-(trifluoromethyl)tetrahydrofuran-2-carboxamide]
10 to 100 nM		COc1c([C@H]2[C@H](C(=O)Nc3ccnc(CN4CCC(F)(F)C4)c3)O[C@@](C)(C(F)(F)F)[C@H]2C)ccc(F)c1F [Compound 182, (2R,3S,4S,5R)-3-(3,4-difluoro-2-methoxyphenyl)-N-(2-((3,3-difluoropyrrolidin-1-yl)methyl)pyridin-4-yl)-4,5-dimethyl-5-(trifluoromethyl)tetrahydrofuran-2-carboxamide]
10 to 100 nM		COc1c([C@H]2[C@H](C(=O)Nc3ccnc(C4COCCN4)c3)O[C@@](C)(C(F)(F)F)[C@H]2C)ccc(F)c1F (single isomer, unassigned) [Compound 342, rel-(2R*,3S*,4S*,5R*)-3-(3,4-difluoro-2-methoxyphenyl)-4,5-dimethyl-N-(2-(morpholin-3-yl)pyridin-4-yl)-5-(trifluoromethyl)-tetrahydrofuran-2-carboxamide]
10 to 100 nM		COc1c([C@H]2[C@H](C(=O)Nc3ccnc(N4CCN(C)CC4)c3)O[C@@](C)(C(F)(F)F)[C@H]2C)ccc(F)c1F [Compound 312, (2R,3S,4S,5R)-3-(3,4-difluoro-2-methoxyphenyl)-4,5-dimethyl-N-(2-(4-methylpiperazin-1-yl)pyridin-4-yl)-5-(trifluoromethyl)-tetrahydrofuran-2-carboxamide]
10 to 100 nM		COc1c([C@H]2[C@H](C(=O)Nc3ccnc(N4C[C@H]5C[C@@H](C4=O)N5C)c3)O[C@@](C)(C(F)(F)F)[C@H]2C)ccc(F)c1F (single isomer, unassigned) [Compound 509, rel-(2R*,3S*,4S*,5R*)-3-(3,4-difluoro-2-methoxyphenyl)-4,5-dimethyl-N-(2-((1S,5R)-6-methyl-2-oxo-3,6-diazabicyclo[3.1.1]heptan-3-yl)pyridin-4-yl)-5-(trifluoromethyl)tetrahydrofuran-2-carboxamide]
10 to 100 nM		CNc1cc(NC(=O)[C@@H]2O[C@@](C)(C(F)(F)F)[C@@H](C)[C@H]2c2ccc(F)c(F)c2OC)ccn1 [Compound 387, (2R,3S,4S,5R)-3-(3,4-difluoro-2-methoxyphenyl)-4,5-dimethyl-N-(2-(methylamino)pyridin-4-yl)-5-(trifluoromethyl)tetrahydrofuran-2-carboxamide]
< 10 nM		COC[C@@H](C)Oc1c([C@H]2[C@H](C(=O)Nc3ccnc(CO)c3)O[C@@](C)(C(F)(F)F)[C@H]2C)ccc(F)c1F [Compound 646, (2R,3S,4S,5R)-3-(3,4-difluoro-2-(((R)-1-methoxypropan-2-yl)oxy)phenyl)-N-(2-(hydroxymethyl)pyridin-4-yl)-4,5-dimethyl-5-(trifluoromethyl)tetrahydrofuran-2-carboxamide]
